Experimental data reported in US11066421B1, “Synthetic cinchona alkaloids against cancer” (Ares Pharmaceuticals, LLC, priority 2021, dated 2021).

Test system: mammary tumors of MMTV/neu transgenic mice
Assay: MMTV/neu transgenic mouse model of HER2+ breast cancer
Format: in vivo
Details: 9-week observation; AP-8 2 mg/kg i.p. twice daily; paclitaxel 6.7 mg/kg; gemcitabine 33.7 mg/kg
Excerpt: The predictive value of genetically engineered mouse (GEM) models to predict the clinical effectiveness of anti-cancer drugs is well established (Richmond A, Su Y. Mouse xenograft models vs GEM models for human cancer therapeutics. Dis Model Mech. 2008; 1(2-3):78-82. doi:10.1241-2/dmm.0.000976). We used the transgenic mouse model of HER2+ chemotherapy-resistant breast cancer to examine the in vivo anti-cancer activity of AP-8. Overexpression of the wild type Neu in the mammary glands of transgenic mice induces metastatic breast cancer. Accordingly, in the MMTV/Neu transgenic strain, the wild-type neu is overexpressed in the mammary gland under the control of the MMTV long terminal repeat. This animal model has been used to analyze the efficacy of new therapeutic approaches to prevent or treat Her2/neu overexpressing malignancies (Uckun, Dibirdik). MMTV/Neu transgenic mice [FVB/N-TgN(MMTV/neu)202MUL; Jackson Laboratory, Bar Harbor, Me.] were bred to produce multiple litters in a controlled SPF environment (12 h light/12 h-dark photoperiod, 22±1° C., 60±10% relative humidity). All mice were housed in microisolator cages (Lab Products, Inc., Maywood, N.Y., USA) containing autoclaved bedding in a controlled specific pathogen-free (SPF) environment (12 h light/12 h-dark photoperiod, 22±1° C., 60±10% relative humidity). Animal studies were approved by the institutional Animal Care and Use Committee of Drug Discovery Enterprises and all animal care procedures conformed to the Guide for the Care and Use of Laboratory Animals of the National Research Council. The genotype of mice was confirmed by multiplex polymerase chain reaction (PCR) tests as previously reported (F. M. Uckun et al., 2007, Bioorganic Med. Chem. 15:800-14; I. Dibirdik et al., 2010, J Nanomed and Nanotechnol. 1:001-4).
Neu transgenic mice carrying one or more tumors were randomly placed in the study. For the evaluation of tumor kinetics, tumor-bearing mice were randomly assigned to either vehicle control or treatment groups. Tumor growth was determined by the measurement of tumors with a caliper in three dimensions three days a week and expressed as tumor volume in cubic millimeters (mm^3). Tumor volumes were calculated using the formula for the volume of a prolate spheroid, V=4/3×3.14×length/2×width/2×depth/2. Due to the large heterogeneity in transgenic tumor volumes on day 0, tumor growth for each mouse was normalized to the starting volume for that particular tumor. Therefore, each mouse also served as its own control, and the tumor growth curves were generated to show the rate of change in tumor volumes.
AP-8 (50 μg˜2 mg/kg in 50 μL DMSO as vehicle) (10 mice, 12 target mammary tumors, Initial average tumor volume=787±125 mm^3) was administered by twice daily intraperitoneal injections on 5 consecutive days per week. Paclitaxel (10 mice, 13 target mammary tumors, Initial average tumor volume=554±79 mm^3) was administered intraperitoneally on days 1, 3, and 5 of each week at a dose level of 6.7 mg/kg ([…]). Gemcitabine (13 mice, 18 target mammary tumors, Initial average tumor volume=549±60 mm^3) was administered intraperitoneally on days 1 and 8 every 4 weeks at a dose level of 33.7 mg/kg (˜1 g/m^2). Control mice (8 mice, 10 mammary tumors, Initial average tumor volume=293±61 mm^3) were treated by twice daily intraperitoneal injections of vehicle alone (50 μL DMSO) on 5 consecutive days per week. […]

SMILES: CCC1CN2CCC1CC2C(Oc1cc(OC(c2ccnc3ccc(OC)cc23)C2CC3CCN2CC3CC)nc(OC(c2ccnc3ccc(OC)cc23)C2CC3CCN2CC3CC)n1)c1ccnc2ccc(OC)cc12 (stereo not shown) [AP-8, 2,4,6-Tri (9-O-dihydroquinidinyl)pyrimidine]
- tumor shrinkage and tumor growth: caused shrinkage of the tumor, completely arrested the tumor growth for 4 weeks, and markedly delayed the tumor progression between 4 weeks and 9 weeks
